# Data: patent US12533359B2, “Method for preventing hair loss” (Icahn School of Medicine at Mount Sinai, priority 2019, dated 2026)
# Entries after “also recorded” stand apart in the source; their conditions may differ.
# How the values were obtained:
# [1] = test system: microdissected hair follicles (dermal sheath contraction); experiment: Ex vivo hair follicle contraction assay (live imaging of microdissected follicles, high K+ depolarization); assay type: cell-based, mouse; conditions: preincubation with 200 μM ML7 HCl for 1 hour, follicles from P8 back skin, hydrochloride
# Method: Whether DS cells can functionally contract in a smooth muscle-like fashion through Ca2+-dependent MLCK activation was then explored. Isolated, short-term cultured DS cells were membrane depolarized by an extracellular K+ spike to activate voltage-gated Ca2+ channels in the presence of Fluo8 fluorescent Ca2+ indicator. The switch from high Na+ to high K+ media led to effective Ca2+ influx within 1.5 minutes (FIG. 3A). […] Next, whether the DS can functionally contract and compress intact hair follicles isolated by microdissection (FIG. 3C) was tested.
# Hair follicles were microdissected from P8 back skin under a Leica S6E stereomicroscope in PBS and collected in 24-well plates. Media was then changed to Krebs buffer+glucose with or without 200 μM ML7 HCl (Tocris) and incubated for 1 hour at 37° C. Single follicles were then transferred to a 6 cm petri dishes immersed in Krebs buffer+glucose and immobilized by embedding the hair shaft tips in a 5×5 mm piece of parafilm. Follicles were then imaged under brightfield illumination on a Leica inverted DM6000 microscope in an enclosed live cell chamber at 37° C. with 5% CO2. Images were taken with a 10× air lens with time intervals of 10 seconds. During imaging, media was exchanged for Krebs buffer+glucose with KCl supplanting NaCl and follicles were refocused when necessary, which took a duration of no more than 10 seconds. […]
# [2] = test system: hair follicle regression (catagen) in back skin; experiment: In vivo contraction inhibition (topical application on back skin during catagen); design: species or system mice; conditions: 1 mM in 20 μl DMSO, topical twice daily P13 to P19, back skin analysed at P20
# Excerpt: To determine whether smooth muscle-like contraction is a main function of the DS to propagate hair follicle regression in vivo, the MLCK pathway was blocked by twice-daily topical application of ML7 throughout catagen on the back skin of mice (FIG. 3G). On the contralateral vehicle control side, follicles regressed normally into telogen with the DP niche relocated next to the SC reservoir (FIG. 3H). […] However, in contrast to ablated follicles, the DS as expected surrounds follicles including DP. […] Patches of lateral back skin measuring 1×1 cm of P13 mice (2 patches per mouse) were clipped and then shaved with a razor blade until no external hair shafts within patches remained. Vehicle-only control DMSO or ML7 HCl (Tocris) dissolved in an equal volume of DMSO (1 mM in 20 μl) was pipetted onto hairless patches and locally rubbed into the skin using a glass rod until visibly dry. Topical applications were performed twice daily from P13 to P19, once in the morning and once in the evening separated by 12 hours. Pieces of back skins including treated areas were then harvested at P20 for downstream analysis.
compound,measurement,setting,value
"Cl.O=S(=O)(c1cccc2c(I)cccc12)N1CCCNCC1 [ML7, hexahydro-1-[(5-iodo-1-naphthalenyl)sulfonyl]-1H-1,4-diazepine hydrochloride]",reduction of follicle widths in high K+ (follicle contraction),[1],effectively blocked
same,DP niche relocation to the stem cells,[2],the DP remains at the tip of stalled follicles
same,hair follicle regression into telogen (stalled follicles),"[2]; contralateral DMSO vehicle control, hydrochloride",striking failure of regression with long stalled follicles stranded deep in the dermis; also recorded: blocks hair follicle regression in vivo
